Legend:
MRL-(Fas)lpr mice = assay: Experimental SLE and lupus nephritis, treatment week 11 to 19; type: in vivo
Experimental: Four-week-old female MRL-(Fas)lpr mice were purchased from Harlan Winkelmann (Borchen, Germany) and kept under pathogen-free conditions in a 12 hour light and dark cycle with free access to food and water. All animal experiments were performed in accordance with the European protection laws of animal welfare, and with approval by the local government authorities Regierung von Oberbayern (reference number: 55.2.1-54-2532.2-11-12). At 11 or 15 weeks of age only mice with proteinuria (Albustix, Bayer AG, Leverkusen, Germany) were randomized into five different groups (n = 10) receiving different medicated diets: Three groups were fed with chow mixed with either 3, 10 or 30 mg/kg/day RO5459072, another group’s chow was mixed with 100 mg/kg/day mycophenolate mofetil (MMF), and one group received a standard diet (vehicle). The dose of MMF was chosen according to several studies reporting strong efficacy on SLE and lupus nephritis in MRL-(Fas)lpr mice[24]–[26]. […] At the age of 19 weeks all mice were sacrificed by cervical dislocation. Blood and urine samples were collected at different time points as indicated. In other experiments 7 week old female MRL-(Fas)lpr mice were randomized into three groups (n = 3) to receive a single intravenous injection of 10 µg sterile recombinant Cat-S and one group receiving vehicle (100 µl sterile PBS). One of the Cat-S groups was pretreated with 30 mg/kg/day RO5459072 starting one week prior to Cat-S injection; another group was pretreated with a total of four daily intra-peritoneal injections of the PAR-2 inhibitor GB83 (10 mg/kg).
Kidney tissue samples were collected from all mice and fixed overnight in 4% buffered formalin. Subsequently the fixed tissue samples were embedded in paraffin and cut into 4 µm thick serial sections. Kidney paraffin sections were stained with periodic acid-Schiff (PAS) reaction using standardized protocols as described. Scoring of lupus nephritis activity and chronicity indices was performed according to human lupus nephritis, [43]. Methenamine silver staining was performed on paraffin embedded kidney sections and semiquantitatively scored form 0–3 by a blinded observer. For immunostaining the following primary antibodies were used: anti-mouse CD3 (Abcam, Cambridge, UK), complement C3c (Biobyt Ltd, Cambridge, UK), CD31 (Dianova GmbH, Hamburg, Germany), WT1 (Santa Cruz Biotechnology, Dallas, Texas) and nephrin (Acris Antibodies, San Diego, CA). The immunostaining for C3c and CD31 were analyzed using the ImageJ software by measuring positively stained area and dividing it by the total area of the glomerulus and reported as percentage of +ve area. Sections stained for WT1/nephrin and CD3 were evaluated by counting positive cells per glomerulus. All the morphometric analysis were carried out in a blinded fashion.
Urinary albumin/creatinine ratios were determined using the Mouse Albumin ELISA Quantitation set (Bethyl Laboratories, Montgomery, TX) and the Creatinine FS kit (DiaSys Diagnostic Systems, Holzheim, Germany)[44]. BUN levels were determined in plasma samples using a Urea FS kit (DiaSys Diagnostic Systems). Mouse IgM, IgG and its isotypes IgG1, IgG2a and IgG2b plasma levels were measured using ELISA Sets (Bethyl Laboratories) at a plasma dilution of 1:1,000 to 1:100,000. Double-stranded DNA IgG and IgM antibodies were quantified as described. Briefly, 96 well Nunc-Immuno plates (Thermo Fisher Scientific, Roskilde, Denmark) were coated with poly-L-lysine (1:1 diluted with PBS) and incubated for two hours. After washing the plates, the plates were coated with 1 µg/ml mouse tail dsDNA sparing the wells for standards, which were coated with anti-mIgG and anti-mIgM (Bethyl Laboratories). The standard curve was fixed from purified mIgG and mIgM (Bethyl Laboratories). The plasma samples were diluted 1:1,000 and added into the wells. After 1 h the assay was developed using HRP-labelled goat anti-mIgG and anti-mIgM and TMB substrate (BD Bioscience, San Diego, CA). […]

Human Cat-K = molecular target: T1, Human Cat-K (Homo sapiens, UniProt P43235); assay: Enzymatic isoform-selectivity assay, Cat-K; type: biochemical
T1 sequence (P43235 115-329): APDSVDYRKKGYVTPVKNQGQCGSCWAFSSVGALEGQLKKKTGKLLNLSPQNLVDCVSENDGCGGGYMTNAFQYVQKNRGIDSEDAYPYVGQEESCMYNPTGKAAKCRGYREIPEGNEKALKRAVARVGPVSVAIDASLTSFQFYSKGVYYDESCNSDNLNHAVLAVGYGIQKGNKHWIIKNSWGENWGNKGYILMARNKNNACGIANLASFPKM
Experimental: RO5459072 was provided by F. Hoffmann-La Roche, Ltd., Basel, Switzerland. It is a competitive inhibitor of the active site of Cat-S and its nitrile function allows covalent reversible inhibition of Cat-S. The synthesis of RO5459072 has been described in WO 2010121918 and WO 2013068434. Recombinant cathepsins were produced in-house or were purchased from commercial vendors. Initial enzymatic assays to determine isoform-selectivity in vitro were performed as previously described, [23]. […] For this the Cat-S-dependent hydrolysis of the fluorogenic substrate Z-Phe-Arg-AMC (Sigma Aldrich) was followed at various inhibitor concentrations. The active fraction of Cat-S was detemined as 70% with a HPLC assay measuring modification of Cat-S with the covalent inhibitor LHVS. The buffer (100 mM potassium phosphate, 50 mM NaCl, 5 mM EDTA, 5 mM TCEP, pH 6) was thoroughly degassed prior to perfoming measurements to prevent oxidation of the catalytic cystein residue by dissolved oxygen. For the Ki-determination the substrate was employed at 10 µM = KM. All kinetic measurements were performad on a SFM-3000 stopped-flow instrument (Bio-Logic Science Instruments) and data were analyzed with GraphPad Prism v5.

Cn1cc(-c2ccc(S(=O)(=O)[C@@H]3C[C@@H](C(=O)NC4(C#N)CC4)N(C(=O)C4(C(F)(F)F)CC4)C3)c(C(F)(F)F)c2)cn1 [RO5459072]
intrarenal mononuclear phagocyte and T cell subsets (MRL-(Fas)lpr mice; flow cytometry of kidneys): suppressed | reduction of urinary albumin/creatinine (A/C) ratio more than MMF (MRL-(Fas)lpr mice; highest dose of RO5459072 versus MMF): 2 log scales | plasma levels of antinuclear antibodies (MRL-(Fas)lpr mice; highest dose, week 19): suppressed | food intake or body weight between groups (MRL-(Fas)lpr mice; medicated diets, throughout the study period): no significant difference | intrarenal mRNA expression of IL-6, MCP-1/CCL2, RANTES/CCL5 and CXCL2 (MRL-(Fas)lpr mice; real time PCR, kidney): suppressed | intrarenal mRNA expression of TNF-α, IFN-γ and SDF-1/CXCL12 (MRL-(Fas)lpr mice; real time PCR, kidney): remained unaffected | blood urea nitrogen (BUN) over time (MRL-(Fas)lpr mice; week 11-19): prevented the progressive increase | podocyte number and proteinuria (MRL-(Fas)lpr mice; week 11-19): protective effect | dsDNA IgM (MRL-(Fas)lpr mice; week 11-19, ELISA): did not affect | total levels of plasma IgM (MRL-(Fas)lpr mice; week 11-19, ELISA): did not affect | spleen plasma cells and plasma IgG levels and IgG isotypes (MRL-(Fas)lpr mice; week 11-19, RO5459072 3, 10, 30 mg/kg/day, MMF 100 mg/kg/day): dose-dependently suppressed | plasma dsDNA IgG levels (IgG autoantibodies) (MRL-(Fas)lpr mice; week 11-19, RO5459072 highest dose, MMF 100 mg/kg/day, ELISA): suppress plasma dsDNA IgG levels below baseline | spleen CD11c+/CD11b+/MHCII+ antigen-presenting cells (MRL-(Fas)lpr mice; week 11-19, flow cytometry): suppressed | spleen CD11c+/F4/80+/MHCII+ cells (MRL-(Fas)lpr mice; week 11-19, flow cytometry): suppressed | complement C3 deposits, diffuse proliferative glomerular lesions and glomerulosclerosis (MRL-(Fas)lpr mice; week 19): less | integrity of the glomerular vasculature (CD31 staining) (MRL-(Fas)lpr mice; week 19): improved | activity and chronicity scores of nephritis (MRL-(Fas)lpr mice; week 19, PAS sections): dose-dependently reduced | IC50 (Human Cat-K): > 1000 nM | IC50, Human Cat-K (Human Cat-K): No sub-micro molar inhibition
